Marks after values point to notes of the source that are not given here.
Tests used:
[1] = system: A2780 cells (human ovarian carcinoma); experiment: Antiproliferative activity, 48 h treatment, ATPlite luminescence assay, A2780; type: cell-based; details: Homo sapiens, A2780, 48 h, read-out: Antiproliferative activity (IC50 ± S.D., μM) A2780
Description: (§1) 24 hours after seeding, an aliquot (10 μl) of the drug at the various concentrations is added (for each concentration there are 3 replicates). After 48 hours of treatment the antiproliferative effect is evaluated with a luminescence assay (Perkin Elmer Life Sciences ATPlite):
(§2) 50 μl of a lysis solution are added to each well followed by an equal volume of a solution containing luciferase and D-luciferin. The ATP present in all the metabolically active cells brings about the transformation reaction of D-luciferin, catalysed by luciferase, to produce a luminescent signal as described in the following scheme: ATP+D-luciferin+O2→Oxyluciferin+AMP+PPi+CO2+Light
(§3) The luminescence produced (expressed in counts per second, CPS) is measured by means of a microplate scintillation analyzer (Perkin Elmer Life Sciences Top Count).
(§4) Percentage inhibition of luminescence in the treated cells compared to the control is calculated; concentration-response curves are then analysed using Grafit v.5.0.

[2] = Drug tolerability in H460 tumor-bearing mice (lethal toxicity); details: athymic Swiss nude, mouse, in vivo, 8 weeks
Description: (§5) The effects of the compounds of the invention and/or topotecan on the growth of primary tumors and spontaneous lung metastasis were tested in mice inoculated s.c. in the right flank with H460 ascitic tumor cells (2×10^6/mouse). Each control or drug-treated group included 9-11 mice. The s.c. tumor growth was followed by biweekly measurements of tumor diameters with a Vernier caliper. Drug treatment was delivered orally, for 8 weeks, from day 1. Topotecan was delivered at the dose of 1 mg/kg and compounds of the invention were delivered at the dose of 30 mg/kg; in the combination group the compounds of the invention were delivered almost 1 hour after topotecan treatment. Control mice were solvent-treated orally in parallel with drug treatments.
(§6) Drug efficacy was assessed as mean percentage tumor weight inhibition in drug-treated versus control mice expressed as tumor weight inhibition % (TWI %)=100−(mean tumor weight treated/mean tumor weight control×100), evaluated during and after drug treatment. Drug tolerability was assessed in tumor-bearing mice as either lethal toxicity, i.e., any death in treated mice occurring before any control death, or percentage body weight loss (BWL %)=100−(body weight on day x/body weight on day 1×100), where x represents a day after or during the treatment period.

[3] = system: H460 cells (human lung carcinoma); experiment: Migration assay (Transwell chemotaxis); type: cell-based; details: after 24 h incubation
Description: Human Lung Carcinoma:H460: maintained in RPMI1640 medium+10% FCS.
H460 cells were seeded in complete medium and treated with different compound concentrations for 24 h. Then, cells were harvested and transferred to 24-well Transwell chambers (Costar) in serum-free medium in the following ways:
migration assay: 1.2×10^5 cells/well were seeded in the upper chamber, and the drug was added, in the same concentrations utilized before, in both upper and lower chambers. After 4 h of incubation at 37° C., migrated cells were fixed in 95% ethanol, stained with a 2% crystal violet in 70% ethanol solution, and counted by an inverted microscope.

[4] = system: SH-SY5Y cells (human neuroblastoma); experiment: Antiproliferative activity, 48 h treatment, ATPlite luminescence assay, SH-SY5Y; type: cell-based; details: Homo sapiens, SH-SY5Y, 48 h, read-out: Antiproliferative activity (IC50 ± S.D., μM) SHSY-5Y
Description: (§7) SH-SY5Y and SK-N-BE(2): maintained in HAM-F12 medium+10% FCS.
as §1, §2, §3, §4

[5] = system: HT29 line; experiment: Apoptosis experiment (Tunel); type: cell-based, human
Description: 1.5×10^6 cells/sample are seeded. After 24 hours the cells are treated with the compounds for 48 or 72 hours. At the end of the treatment, the cells are detached with Trypsin/EDTA, washed in PBS (phosphate buffered solution) and incubated for 45 minutes at room temperature in 1 ml of 4% paraformaldehyde.
The cells are then washed with PBS and resuspended in 100 μl of permeabilizing solution (0.1% triton in 0.1% sodium citrate) for 2 minutes in ice. After a further wash, the cells are resuspended in 50 μl of Tunel reaction mix (Boehringer Mannheim) and left at 37° C. for 1 hour in the dark. After washing in PBS, the cells are resuspended in PBS and analysed by cytofluorimeter or examined by fluorescence microscope.

[6] = system: H460 primary tumor; experiment: H460 human non-small cell lung carcinoma xenograft, antitumor activity on the primary tumor; type: in vivo, athymic Swiss nude mice; details: H460 s.c., p.o. for 8 weeks, topotecan 1 mg/kg, compound of example 2 30 mg/kg
Description: Female athymic Swiss nude mice (8-10 weeks old) (Charles River, Calco, Italy) were used for the experiments, as described above.
H460 cells were injected i.p. into nude mice, adapted to grow as ascitis and maintained in vivo by i.p. passages (5×10^6 cells/mouse in 0.5 ml PBS) (Pratesi G., Br. J. Cancer 63, 71-74, 1991). Briefly, cells were collected from the donor mice about 7 days after inoculum. After washing, cell number and viability were determined by trypan blue exclusion. Such procedure allowed to obtain a single cell suspension easily available for s.c or i.v. injection.
as §5, §6

[7] = system: H460 spontaneous lung metastasis; experiment: H460 xenograft, spontaneous lung metastasis (antimetastatic activity); type: in vivo, athymic Swiss nude mice; details: topotecan 1 mg/kg, compound of example 2 30 mg/kg p.o.
Description: At day 63, tumor-bearing mice were sacrificed by cervical dislocation and their lungs were removed and weighed. Lung lobes were spliced between two glass slides and the metastatic nodules were macroscopically counted against a bright light (Corti C, J. Cancer Res. Clin. Oncol. 122, 154-60, 1996). […] Reading of metastasis was performed by two independent observers, unaware of the experimental group, with an interobserver reproducibility >95%. The metastatic nature of these areas was confirmed by histological analysis of digital images obtained by Image Analysis System software (Delta System, Rome, Italy).

[8] = system: LoVo/Dx cells (doxorubicin-resistant human colon carcinoma, P-glycoprotein overexpression); experiment: Antiproliferative activity, 72 h treatment, SRB assay, LoVo/Dx; type: cell-based
Description: LoVo and LoVo/Dx (line obtained by prolonged exposure to doxorubicin and characterised by overerexpression of P-glycoprotein, which confers resistance to doxorubicin): maintained in HAM-F12 medium+10% FCS.

[9] = system: HT29 cells (human colon carcinoma); experiment: Antiproliferative activity, 72 h treatment, SRB assay, HT29; type: cell-based
Description: HT29 and HT29/Mit (line obtained by prolonged exposure to mitoxantrone, and characterised by overerexpression of BCRP, which confers cross resistance to topotecan, irinotecan and to its metabolite SN38): maintained in McCoy 5A medium+10% FCS.
The cells (HT29 and HT29/Mit:. 40,000 cells/ml, LoVo, LoVo/Dx and HCT116: 50,000 cells/ml) are seeded in 100 μl of the respective culture media in 96-well plates. 24 hours after seeding, an aliquot (10 μl) of drug at the various concentrations is added. In the samples in which the effect of the combination of two compounds is to be tested the inhibitor is added immediately before the cytotoxic. For each dose or combination of doses/drugs the effect of the treatment is determined in 4-8 replicates.
After 72 hours of treatment the antiproliferative effect is evaluated using the sulforhodamine B (SRB) assay: the cells are fixed by adding 25 μl of 50% TCA to each well and left for 1 hour at 4° C. After washing them with water and allowing them to dry, 100 μl of 0.4% SRB in 1% acetic acid are added and left for 30 minutes at room temperature. After 4 washes in 1% acetic acid, they are left to dry, then the dye fixed by the proteins is dissolved under basic conditions with 100 μl 10 mM cold Tris and the solution is read using a spectrophotometer at 550 nm.
Percentage cell growth is calculated as the optical density of treated samples compared to the optical density of controls (untreated cells).

[10] = system: SK-N-BE(2) cells (human neuroblastoma); experiment: Antiproliferative activity, 48 h treatment, ATPlite luminescence assay, SK-N-BE(2); type: cell-based; details: Homo sapiens, SKNBE2, 48 h, read-out: Antiproliferative activity (IC50 ± S.D., μM) SK-N-BE(2)
Description: as §7, §1, §2, §3, §4

[11] = cell line not stated in the sentence (follows LoVo/DX)

SMILES: CCOc1cc(C(=O)NC2CC(C)(C)NC(C)(C)C2)ccc1-c1cc2cc(Cl)c(Cl)cc2[nH]1 [Example 2]
- IC50 [1]: 1.9 ± 0.1 µM
- Tox/Tot (any death in treated mice occurring before any control mice) [2]: 0/10
- inhibition at 2.2 µM ([3]; NCI-H460, 2.2 μM): 51%
- inhibition at 5.7 µM ([3]; NCI-H460, 5.7 μM): 92%
- IC50 [4]: 6.8 ± 0.5 µM
- Induction of apoptosis [5]: high level of apoptosis
- LCK (Log10 Cell Kill) [6]: 0.6
- Max TWI (day 56) (Maximal Tumor weight inhibition achieved) ([6]; listed as Compound of example 2): 58* %
- Max TWI (day 56) (Maximal Tumor weight inhibition achieved) ([6]; listed as compound of example 2): 58%
- Lung No. Metastasis (range) ([7]; day 63): reduced
- Lung Weight (mg) (mean ± S.D.) ([7]; day 63): 177 ± 30 mg
- Lung No. Metastasis (range) ([7]; day 63, listed as Compound of example 2): 15 (3-56)
- Lung metastasis Inhibition % ([7]; inhibition of number of metastasis vs controls): 42%
- IC50 ([8]; Homo sapiens, LoVo/DX, 72 h, read-out: Antiproliferative activity (IC50 ± S.D., μM) LoVo/Dx): 3 ± 1.3 µM
- Interaction with SN38 ([8]; LoVo/DX variant (MDR phenotype), compared with LoVo): even more evident
- Interaction with doxorubicin [8, 11]: Synergistic interactions
- Interaction with taxol [8, 11]: Synergistic interactions
- Effect on antiproliferative activity of topotecan ([9]; HT29 model, subtoxic and subactive concentrations (<1 μM) of compound of example 2): enhanced antiproliferative activity of topotecan
- IC50 ([9]; Homo sapiens, HT-29, 72 h, read-out: Antiproliferative activity (IC50 ± S.D., μM) HT-29): 1 ± 0.1 µM
- Antiproliferative activity in the human tumour cell lines used (summary of Table 1) ([9]; all lines: 72 hours (HT29, HT29/Mit, LoVo, LoVo/DX, HCT116) or 48 hours (HepG2, SHSY-5Y, SK-N-BE(2), A2780)): high antiproliferative potency
- IC50 [10]: 3.7 ± 0.2 µM

From US20070299084A1, “Indole Derivatives Useful for Treating Resistance to Antitumor Agents” (NIKEM RESE S.R.L., priority 2004, published 2007)
